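The compound was tested at five concentrations on cells cultured in 96-well plates, with a 48-hour exposure period. TGI is the concentration that stops growth completely.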
Assays:
Assay in all cases: NCI tumour cell line growth inhibition, 48 h
HOP-18 NSCLC = test system: HOP-18 NSCLC
SNB-78 CNS = test system: SNB-78 CNS
SK-MEL-2 melanoma = test system: SK-MEL-2 melanoma
DMS 273 small cell lung = test system: DMS 273 small cell lung
DLD-1 colon = test system: DLD-1 colon
SK-MEL-5 melanoma = test system: SK-MEL-5 melanoma
M19-MEL melanoma = test system: M19-MEL melanoma
DMS 114 small cell lung = test system: DMS 114 small cell lung
P388/ADR leukemia = test system: P388/ADR leukemia
LOX IMVI melanoma = test system: LOX IMVI melanoma
KM20L2 colon = test system: KM20L2 colon
XF 498 CNS = test system: XF 498 CNS
MDA-MB-435 = test system: MDA-MB-435
HS 578T breast = test system: HS 578T breast
LXFL 529 NSCLC = test system: LXFL 529 NSCLC

SMILES | TGI (HOP-18 NSCLC) | TGI (SNB-78 CNS) | TGI (SK-MEL-2 melanoma) | TGI (DMS 273 small cell lung) | TGI (DLD-1 colon) | TGI (SK-MEL-5 melanoma) | TGI (M19-MEL melanoma) | TGI (DMS 114 small cell lung) | TGI (P388/ADR leukemia) | TGI (LOX IMVI melanoma) | TGI (KM20L2 colon) | TGI (XF 498 CNS) | TGI (MDA-MB-435) | TGI (HS 578T breast) | TGI (LXFL 529 NSCLC)
O=C(CCN1CCOCC1)/C(=C/c1ccccc1)c1ccccc1 | 30.6 µM | 21.3 µM | 21.5 µM | 21.4 µM | 4.04 µM | 21.5 µM | 14.1 µM | 12 µM | 3.99 µM | 7.42 µM | 15.1 µM | 19.1 µM | – | – | –
CC(C)(C)OC(=O)[C@@H]1CCC(=O)N1C1(c2ccccc2)c2ccccc2-c2ccccc21 | – | – | > 100 µM | – | – | 51.9 µM | – | – | – | 37.2 µM | – | – | > 100 µM | > 100 µM | –
CCCCc1ccc(Nc2ncc3ncn(COCCO)c3n2)cc1 | – | – | 73.1 µM | – | – | 49.6 µM | – | – | – | 39.7 µM | – | – | 87.5 µM | 83.7 µM | –
CCOC(=O)C1CC(C(=O)c2ccccc2)N2c3ccccc3-c3ccccc3C12 (centres undefined) | – | – | > 100 µM | – | – | > 100 µM | – | – | – | > 100 µM | – | – | > 100 µM | 97.2 µM | –
Cc1nc2cc(F)c(F)cc2[nH]c1=O | – | – | > 100 µM | – | – | > 100 µM | – | – | – | > 100 µM | – | – | > 100 µM | > 100 µM | –
COC(C/C(=C/CO[Si](C(C)C)(C(C)C)C(C)C)C(=O)N(COCC[Si](C)(C)C)c1ccccc1I)OC | – | – | 29.9 µM | – | – | > 100 µM | – | – | – | 37.8 µM | – | – | 29.1 µM | > 100 µM | –
O=C(O)CCC(=O)OCN1C(=O)C2C3C=CC(C2C1=O)C1C2C(=O)N(COC(=O)CCC(=O)O)C(=O)C2C31 (centres undefined) | > 100 µM | > 100 µM | > 100 µM | > 58.2 µM | > 100 µM | > 100 µM | > 100 µM | > 67.9 µM | – | > 63 µM | > 100 µM | > 100 µM | – | – | > 100 µM
CCOC(=O)/C(C(N)=O)=C(\O)C(=O)/C(Br)=C(\O)c1ccccc1 | – | – | 37.4 µM | – | – | 30.5 µM | – | – | – | 36.3 µM | – | – | 31.6 µM | 50.1 µM | –
CC(C)(C)C1CCC2c3c([nH]c4ccccc34)C3C(=O)N(c4ccc(C#N)cc4)C(=O)C3C2C1 (centres undefined) | – | – | 30 µM | – | – | 25.5 µM | – | – | – | 34.6 µM | – | – | > 100 µM | 37 µM | –
COc1cc(/C=C2\CC/C(=C\c3cc(OC)c(O)c(OC)c3)C2=O)cc(OC)c1O | – | – | 2.02 µM | – | – | 5.57 µM | – | – | – | 6.26 µM | – | – | 4.19 µM | 15.8 µM | –
N#CC(CCN1CCC(Nc2ccccc2)(c2nnnn2C2CCCCC2)CC1)(c1ccccc1)c1ccccc1 | – | – | > 100 µM | – | – | > 100 µM | – | – | – | > 100 µM | – | – | > 100 µM | > 100 µM | –
O=c1[nH]nc(-c2ccccc2)n1/N=C/c1ccc([N+](=O)[O-])o1 | – | – | 11.6 µM | – | – | 28.9 µM | – | – | – | > 100 µM | – | – | 10.9 µM | > 100 µM | –
